In PubChem BioAssay (NCI):
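Briefly, cells in 96-well plates were exposed to five compound concentrations for 48 h, and endpoints were estimated by linear interpolation. TGI is the concentration that stops growth completely.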

Assays:
Test in all cases: growth of human tumour cells (NCI), 48 h
HCT-116 colon = system: HCT-116 colon
RPMI-8226 leukemia = system: RPMI-8226 leukemia
CCRF-CEM leukemia = system: CCRF-CEM leukemia
K-562 leukemia = system: K-562 leukemia
OVCAR-3 ovarian = system: OVCAR-3 ovarian
CAKI-1 renal = system: CAKI-1 renal
TK-10 renal = system: TK-10 renal
SK-MEL-5 melanoma = system: SK-MEL-5 melanoma
MALME-3M melanoma = system: MALME-3M melanoma
786-0 renal = system: 786-0 renal
IGROV1 ovarian = system: IGROV1 ovarian
SN12C renal = system: SN12C renal
NCI-H522 lung = system: NCI-H522 lung
SK-OV-3 ovarian = system: SK-OV-3 ovarian
SK-MEL-28 melanoma = system: SK-MEL-28 melanoma
HT29 colon = system: HT29 colon
LXFL 529 NSCLC = system: LXFL 529 NSCLC
SR leukemia = system: SR leukemia
UO-31 renal = system: UO-31 renal
SF-295 CNS = system: SF-295 CNS
HL-60(TB) leukemia = system: HL-60(TB) leukemia
SNB-75 CNS = system: SNB-75 CNS
KM12 colon = system: KM12 colon
SF-268 CNS = system: SF-268 CNS
U251 CNS = system: U251 CNS
SW-620 colon = system: SW-620 colon
EKVX NSCLC = system: EKVX NSCLC
UACC-62 melanoma = system: UACC-62 melanoma
COLO 205 colon = system: COLO 205 colon
OVCAR-4 ovarian = system: OVCAR-4 ovarian
HOP-62 NSCLC = system: HOP-62 NSCLC
HCT-15 colon = system: HCT-15 colon
SF-539 CNS = system: SF-539 CNS
HCC-2998 colon = system: HCC-2998 colon
NCI-H460 lung = system: NCI-H460 lung
KM20L2 colon = system: KM20L2 colon
SK-MEL-2 melanoma = system: SK-MEL-2 melanoma
MOLT-4 leukemia = system: MOLT-4 leukemia
A549 NSCLC = system: A549 NSCLC
NCI-H23 lung = system: NCI-H23 lung
M19-MEL melanoma = system: M19-MEL melanoma
M14 melanoma = system: M14 melanoma
UACC-257 melanoma = system: UACC-257 melanoma
DMS 273 small cell lung = system: DMS 273 small cell lung
LOX IMVI melanoma = system: LOX IMVI melanoma
A498 renal = system: A498 renal
HOP-92 NSCLC = system: HOP-92 NSCLC
RXF 393 renal = system: RXF 393 renal
SNB-78 CNS = system: SNB-78 CNS
ACHN renal = system: ACHN renal
OVCAR-8 ovarian = system: OVCAR-8 ovarian
SNB-19 CNS = system: SNB-19 CNS
MCF7 breast = system: MCF7 breast
HS 578T breast = system: HS 578T breast
OVCAR-5 ovarian = system: OVCAR-5 ovarian
DU-145 prostate = system: DU-145 prostate
BT-549 breast = system: BT-549 breast
MDA-N = system: MDA-N
PC-3 prostate = system: PC-3 prostate
NCI/ADR-RES ovarian = system: NCI/ADR-RES ovarian
NCI-H226 lung = system: NCI-H226 lung
MDA-MB-435 = system: MDA-MB-435
T-47D breast = system: T-47D breast
MDA-MB-231 breast = system: MDA-MB-231 breast

`Cc1ccc(S(=O)(=O)OC(COC(=O)c2ccccc2)C(OS(=O)(=O)c2ccc(C)cc2)C(OS(=O)(=O)c2ccc(C)cc2)C(COC(=O)c2ccccc2)OS(=O)(=O)c2ccc(C)cc2)cc1` (centres undefined) gave a TGI (HCT-116 colon) greater than 100 µM, a TGI (RPMI-8226 leukemia) greater than 100 µM and a TGI (CCRF-CEM leukemia) greater than 100 µM. The TGI (K-562 leukemia) was greater than 100 µM, the TGI (OVCAR-3 ovarian) was greater than 100 µM and the TGI (CAKI-1 renal) was greater than 100 µM. The TGI (TK-10 renal) was greater than 100 µM, the TGI (SK-MEL-5 melanoma) was greater than 100 µM and the TGI (MALME-3M melanoma) was greater than 100 µM. For the same molecule, the TGI (786-0 renal) was greater than 100 µM, the TGI (IGROV1 ovarian) was greater than 10 µM and the TGI (SN12C renal) was greater than 100 µM. The TGI (NCI-H522 lung) was greater than 100 µM, the TGI (SK-OV-3 ovarian) was greater than 10 µM and the TGI (SK-MEL-28 melanoma) was greater than 100 µM. For the same molecule, the TGI (HT29 colon) was greater than 100 µM, the TGI (LXFL 529 NSCLC) was greater than 100 µM and the TGI (SR leukemia) was greater than 100 µM. It also gave a TGI (UO-31 renal) greater than 100 µM, a TGI (SF-295 CNS) greater than 100 µM and a TGI (HL-60(TB) leukemia) greater than 100 µM. The TGI (SNB-75 CNS) was 90 µM, the TGI (KM12 colon) was greater than 100 µM and the TGI (SF-268 CNS) was greater than 100 µM. For the same molecule, the TGI (U251 CNS) was greater than 100 µM, the TGI (SW-620 colon) was greater than 100 µM and the TGI (EKVX NSCLC) was greater than 100 µM. It also gave a TGI (UACC-62 melanoma) greater than 10 µM, a TGI (COLO 205 colon) greater than 100 µM and a TGI (OVCAR-4 ovarian) greater than 100 µM. The TGI (HOP-62 NSCLC) was greater than 100 µM, the TGI (HCT-15 colon) was greater than 100 µM and the TGI (SF-539 CNS) was greater than 100 µM. For the same molecule, the TGI (HCC-2998 colon) was greater than 100 µM, the TGI (NCI-H460 lung) was greater than 100 µM and the TGI (KM20L2 colon) was greater than 100 µM. The TGI (SK-MEL-2 melanoma) was greater than 100 µM, the TGI (MOLT-4 leukemia) was greater than 100 µM and the TGI (A549 NSCLC) was greater than 100 µM. For the same molecule, the TGI (NCI-H23 lung) was greater than 100 µM, the TGI (M19-MEL melanoma) was greater than 100 µM and the TGI (M14 melanoma) was greater than 100 µM. It also gave a TGI (UACC-257 melanoma) greater than 100 µM, a TGI (DMS 273 small cell lung) greater than 100 µM and a TGI (LOX IMVI melanoma) greater than 100 µM. The TGI (A498 renal) was greater than 100 µM, the TGI (HOP-92 NSCLC) was greater than 100 µM and the TGI (RXF 393 renal) was greater than 100 µM. It also gave a TGI (SNB-78 CNS) greater than 100 µM, a TGI (ACHN renal) greater than 100 µM and a TGI (OVCAR-8 ovarian) greater than 100 µM. It also gave a TGI (SNB-19 CNS) greater than 100 µM.
`Nc1nc(SCc2ccccc2Cl)cc(C(=O)O)n1` gave a TGI (HCT-116 colon) greater than 100 µM, a TGI (MCF7 breast) greater than 100 µM and a TGI (RPMI-8226 leukemia) greater than 100 µM. For the same molecule, the TGI (CCRF-CEM leukemia) was greater than 100 µM, the TGI (K-562 leukemia) was greater than 100 µM and the TGI (HS 578T breast) was greater than 100 µM. For the same molecule, the TGI (OVCAR-3 ovarian) was 89.2 µM, the TGI (CAKI-1 renal) was greater than 100 µM and the TGI (TK-10 renal) was greater than 100 µM. It also gave a TGI (SK-MEL-5 melanoma) greater than 100 µM, a TGI (MALME-3M melanoma) greater than 100 µM and a TGI (OVCAR-5 ovarian) greater than 100 µM. For the same molecule, the TGI (786-0 renal) was greater than 100 µM, the TGI (DU-145 prostate) was greater than 100 µM and the TGI (IGROV1 ovarian) was greater than 100 µM. It also gave a TGI (BT-549 breast) greater than 100 µM, a TGI (SN12C renal) greater than 100 µM and a TGI (NCI-H522 lung) greater than 100 µM. The TGI (SK-OV-3 ovarian) was greater than 100 µM, the TGI (SK-MEL-28 melanoma) was greater than 100 µM and the TGI (HT29 colon) was greater than 100 µM. The TGI (MDA-N) was greater than 100 µM, the TGI (SR leukemia) was greater than 100 µM and the TGI (UO-31 renal) was greater than 100 µM. For the same molecule, the TGI (PC-3 prostate) was greater than 100 µM, the TGI (NCI/ADR-RES ovarian) was greater than 100 µM and the TGI (SF-295 CNS) was greater than 100 µM. The TGI (HL-60(TB) leukemia) was greater than 100 µM, the TGI (SNB-75 CNS) was greater than 100 µM and the TGI (KM12 colon) was greater than 100 µM. For the same molecule, the TGI (SF-268 CNS) was greater than 100 µM, the TGI (U251 CNS) was greater than 100 µM and the TGI (SW-620 colon) was greater than 100 µM. For the same molecule, the TGI (EKVX NSCLC) was greater than 100 µM, the TGI (UACC-62 melanoma) was greater than 100 µM and the TGI (COLO 205 colon) was greater than 100 µM. For the same molecule, the TGI (OVCAR-4 ovarian) was greater than 100 µM, the TGI (HOP-62 NSCLC) was greater than 100 µM and the TGI (HCT-15 colon) was greater than 100 µM. It also gave a TGI (HCC-2998 colon) greater than 100 µM, a TGI (NCI-H460 lung) greater than 100 µM and a TGI (SK-MEL-2 melanoma) greater than 100 µM. The TGI (A549 NSCLC) was greater than 100 µM, the TGI (NCI-H23 lung) was greater than 100 µM and the TGI (M14 melanoma) was greater than 100 µM. For the same molecule, the TGI (NCI-H226 lung) was greater than 100 µM, the TGI (UACC-257 melanoma) was greater than 100 µM and the TGI (LOX IMVI melanoma) was greater than 100 µM. It also gave a TGI (A498 renal) greater than 100 µM, a TGI (HOP-92 NSCLC) greater than 100 µM and a TGI (RXF 393 renal) greater than 100 µM. It also gave a TGI (MDA-MB-435) greater than 100 µM, a TGI (ACHN renal) greater than 100 µM and a TGI (OVCAR-8 ovarian) greater than 100 µM. It also gave a TGI (T-47D breast) greater than 100 µM, a TGI (MDA-MB-231 breast) greater than 100 µM and a TGI (SNB-19 CNS) greater than 100 µM.
